Positions count from the first letter of the chain named. Read-outs that look alike come from different tables or passages of the source.
Legend:
[1] = biological target: T1, R878A mutated mAPA (Mus musculus, UniProt P16406, R878A); assay: Inhibition of GluNA hydrolysis by purified recombinant R878A His-mAPA; type: biochemical; settings: R878A mAPA; for Ki: 0.5 mM GluNA, read-out: Ki
T1 construct: made in house; host or cells: stably transfected CHO-K1 cells
T1 sequence (P16406 1-945 R878A): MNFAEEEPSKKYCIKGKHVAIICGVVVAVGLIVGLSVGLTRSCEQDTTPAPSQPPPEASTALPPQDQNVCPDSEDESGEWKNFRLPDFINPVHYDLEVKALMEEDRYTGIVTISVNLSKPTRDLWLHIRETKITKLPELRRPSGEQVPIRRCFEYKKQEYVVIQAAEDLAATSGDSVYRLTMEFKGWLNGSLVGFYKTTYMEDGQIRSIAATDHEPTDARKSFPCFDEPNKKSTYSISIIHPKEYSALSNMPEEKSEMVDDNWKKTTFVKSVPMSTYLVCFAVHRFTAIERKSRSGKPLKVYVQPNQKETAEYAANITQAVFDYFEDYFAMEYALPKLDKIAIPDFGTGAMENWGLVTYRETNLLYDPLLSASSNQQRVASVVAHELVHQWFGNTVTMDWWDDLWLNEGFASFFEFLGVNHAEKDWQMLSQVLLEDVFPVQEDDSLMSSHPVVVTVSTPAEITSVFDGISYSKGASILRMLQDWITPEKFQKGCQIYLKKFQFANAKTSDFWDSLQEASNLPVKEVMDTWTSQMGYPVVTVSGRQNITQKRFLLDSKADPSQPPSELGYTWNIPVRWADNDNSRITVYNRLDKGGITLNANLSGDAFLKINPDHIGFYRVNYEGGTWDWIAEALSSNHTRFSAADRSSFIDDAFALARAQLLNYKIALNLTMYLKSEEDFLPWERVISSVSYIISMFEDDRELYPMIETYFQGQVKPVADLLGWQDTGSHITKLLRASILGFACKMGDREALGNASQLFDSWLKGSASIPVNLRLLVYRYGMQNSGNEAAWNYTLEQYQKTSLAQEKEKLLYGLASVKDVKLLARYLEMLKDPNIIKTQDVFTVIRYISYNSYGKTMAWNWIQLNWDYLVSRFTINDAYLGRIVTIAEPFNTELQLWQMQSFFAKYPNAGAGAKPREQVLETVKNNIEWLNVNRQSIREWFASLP
Procedure: (§1) Enzyme assays were carried out for wild-type and mutated His-mAPAs in 50 mM Tris-HCl buffer, pH 7.4, with or without 4 mM CaCl2, by monitoring the rate of hydrolysis of GluNA, as previously described. The sensitivity to Ca^2+ of purified wild-type and mutated His-mAPA was determinated by incubating 0.5 mM GluNA with 0 to 4 mM CaCl2 in a final volume of 100 μl of 50 mM Tris-HCl buffer, pH 7.4. All the assays were performed in black 96-well plates (solid black 96-well flat-bottomed non-treated plates with no lid; Corning Costar). All of the enzymatic studies were performed such that substrate hydrolysis rates were maintained below 10% (initial rate conditions). The kinetic curves were monitored by following the increase in fluorescence at 460 nm (lex = 330 nm), induced by the release of the β-naphthylamide fluorogenic part of the substrate by APA. Fluorescence signals were monitored by counting photons with a spectrophotometer (Fusion universal microplate analyser; Packard) equipped with a temperature control device and a plate shaker. The kinetic parameters (Km and kcat) were determined from Michaelis-Menten plots, using GraphPad Prism 4 software (GraphPad) with a final concentration of substrate (GluNA) from 0.005 to 5 mM with or without 4 mM Ca^2+. For evaluation of the substrate specificity of APA with or without 4 mM Ca^2+, the rate of hydrolysis of […] additional substrates, α-L-aspartate-β-naphthylamide (AspNA), α-L-alanine-β-naphthylamide (AlaNA) and basic α-L-lysine-β-naphthylamide (LysNA), was determined under the same experimental conditions as described for GluNA. The sensitivity of wild-type and mutated His-mAPAs to inhibition by [(3S)-3-amino-4-sulfanyl-butane-1-sulfonic acid] (EC33), glutamate-thiol (GluSH), glutamate-phosphonic-acid (GluPO3H2), methionine-thiol (MetSH) and lysine-thiol (LysSH) was determined by establishing dose-dependent inhibition curves for a final GluNA concentration of 0.5 mM in the presence or absence of 4 mM CaCl2. These compounds being linear competitive inhibitors, their Ki were calculated from the formula Ki = IC50/ (1+ [GluNA]/Km).

[2] = biological target: T2, R878K mutated mAPA (Mus musculus, UniProt P16406, R878K); assay: Inhibition of GluNA hydrolysis by purified recombinant R878K His-mAPA; type: biochemical; settings: R878K mAPA; for Ki: 0.5 mM GluNA, read-out: Ki
T2 construct: made in house; host or cells: stably transfected CHO-K1 cells
T2 sequence (P16406 1-945 R878K): T1 sequence (P16406 1-945 R878A) with A878K
Procedure: as §1

[3] = tested on: APN; design: method as in PMID 7915326; settings: cited from earlier work
[4] = biological target: T2, R878K mutated mAPA; assay: Kinetic parameters of substrate hydrolysis by R878K His-mAPA; type: biochemical
Procedure: as §1

Structure (SMILES)	Ki ([1]; 4 mM Ca2+) [nM]	Ki ([2]; 4 mM Ca2+) [nM]	enhancement of inhibitory potency by 4 mM Ca2+ compared to Ki in the absence of Ca2+ [1] [fold]	Ki ([1]; absence of calcium) [nM]	enhancement of inhibitory potency by 4 mM Ca2+ compared to Ki in the absence of Ca2+ [2] [fold]	Ki ([2]; absence of calcium) [nM]	Km ([4]; 4 mM Ca2+) [µM]	kcat ([4]; 4 mM Ca2+)	Km ([4]; no Ca2+) [µM]	kcat ([4]; no Ca2+) [s⁻¹]	decrease in the affinity of the enzyme for the substrate compared to wild-type (factor) ([4]; presence of Ca2+)	fold less active on APN than on APA [3] [fold]
N[C@H](CS)CCS(=O)(=O)O [EC33, (3S)‐3‐amino‐4‐sulfanylbutane‐1‐sulfonic acid]	2000 ± 200	1520 ± 126	–	–	–	–	–	–	–	–	–	100
N[C@H](CS)CCC(=O)O [GluSH, (4S)-4-amino-5-sulfanylpentanoic acid]	983 ± 160	2100 ± 440	1.7	1720 ± 190	6.6	> 10000	–	–	–	–	–	–
NCCCC[C@H](N)C(=O)Nc1ccc2ccccc2c1 [HLysβNA, α-L-lysine-β-naphthylamide]	–	–	–	–	–	–	229 ± 16.2	24.4 ± 0.5^n.s s-1	336 ± 54.3	9.0 ± 0.5	–	–
NCCCC[C@H](N)CS [LysSH, (2S)-2,6-diaminohexane-1-thiol]	7510 ± 660	13900 ± 390	–	118 ± 13	–	378 ± 20	–	–	–	–	–	–
CSCC[C@H](N)CS [MetSH]	3220 ± 200	5140 ± 560	–	475 ± 140	–	1250 ± 57	–	–	–	–	–	–

Second part, led by results:

Ki ([1]; 4 mM Ca2+) [nM]	Ki ([2]; 4 mM Ca2+) [nM]	enhancement of inhibitory potency by 4 mM Ca2+ compared to Ki in the absence of Ca2+ [1] [fold]	Ki ([1]; absence of calcium) [nM]	enhancement of inhibitory potency by 4 mM Ca2+ compared to Ki in the absence of Ca2+ [2] [fold]	Ki ([2]; absence of calcium) [nM]	Km ([4]; 4 mM Ca2+) [µM]	kcat ([4]; 4 mM Ca2+)	Km ([4]; no Ca2+) [µM]	kcat ([4]; no Ca2+) [s⁻¹]	decrease in the affinity of the enzyme for the substrate compared to wild-type (factor) ([4]; presence of Ca2+)	Structure (SMILES)	fold less active on APN than on APA [3] [fold]
–	–	–	–	–	–	821 ± 142	26.2 ± 1.5 s⁻¹	670 ± 25.2	27.1 ± 4.8	–	C[C@H](N)C(=O)Nc1ccc2ccccc2c1 [HAlaβNA, α-L-alanine-β-naphthylamide]	–
–	–	–	–	–	–	202 ± 5.7	42.2 ± 1.1 s⁻¹	3150 ± 328	0.2 ± 0.01	–	N[C@@H](CC(=O)O)C(=O)Nc1ccc2ccccc2c1 [HAspβNA, α-L-aspartate-β-naphthylamide]	–
–	–	–	–	–	–	269 ± 5.1	135 ± 1.3 s⁻¹	12500 ± 1450	3.12 ± 0.4	6	N[C@@H](CCC(=O)O)C(=O)Nc1ccc2ccccc2c1 [HGluβNA, α-L-glutamyl-β-naphthylamide]	–
